Measured values published in publication PMC7144563 (Molecules, 2020).

Experimental: Cellulose membrane was properly treated and mounted in the Franz diffusion cells (diffusion area 4.9 cm^2, compartment volume 20 mL). The acceptor compartment was filled with PBS pH 7.4 and the donor compartment was filled with 1 mL of the formulation described above (100 μg/mL of the compounds). Permeation studies were conducted under constant stirring (90 rpm) at 37 °C. Samples of 0.5 mL were withdrawn from the acceptor compartment at predetermined time intervals (30 min, 1 h, 2 h, 4 h, 6 h, 8 h) and replaced with fresh and preheated PBS. Experiments were repeated in triplicates for each compound and blank experiments containing only the medium were also performed. The samples were analyzed by HPLC without any previous pretreatment.
Steady state flux (Jss) was calculated from the slope of the linear section of the plot of the amount of permeated compound per unit area (μg/cm^2) against to time. The apparent permeability coefficient (Papp) was calculated using Equation (3), where Cd is the initial concentration of the drug in the donor compartment and Jss is the steady state flux. (3) Papp=Jss/Cd

C[C@]12CCC(=O)C[C@@H]1CC[C@@H]1[C@@H]2CC[C@]2(C)[C@@H](O)CC[C@@H]12 [COMP 3, Androstanolone]
Papp values compared to the rest of the tested steroids (during the first 4 h (2 h and 4 h) of the in vitro permeability study, considered outlier): significantly higher

C[C@]12C=CC(=O)C=C1CC[C@@H]1[C@@H]2C(=O)C[C@@]2(C)[C@H]1CC[C@]2(O)C(=O)CO [COMP 27, Prednisone]
apparent permeability coefficient (Papp) (pH 7.4): highest
